Key:
fecal bile acid (FBA) = experiment: Fecal bile acids in rats, LUM001 Q.D. for four days; type: in vivo, Wistar rats
Protocol: Male Wistar rats (Charles River Laboratories) weighing 275-300 grams were single-housed in a constant temperature environment with alternating 12 hour light and dark cycles. All animals had continuous access to a commercial rodent diet as well as water. In each study rats were randomly assigned to either vehicle or treatment groups and were administered intragastric doses (Q.D. gavage) of drug dissolved in aqueous 0.2% (v/v) Tween 80 (2 ml kg body weight). The animals were dosed in the morning between 9:00 and 10:00 a.m. for four consecutive days. Fecal samples were collected on papers underneath each cage during the final 48 hour period of the study and analyzed for bile acid content.
Cage papers containing the 48-hour fecal samples were collected at approximately 9:00 a.m. on the final day and used to determine the individual fecal bile acid (FBA) concentration for each animal. Fecal samples from each rat were weighed and a weight of distilled water (1 gram/mL) equal to 2 times the total weight of feces was added to each sample container (e.g., 20 mL water to 10 grams feces). The containers were stored overnight at 4° C. Each sample was homogenized for approximately 45 seconds using a small food processor to yield a homogeneous slurry. 1.4 grams of the homogenate was weighed into 16×100 polypropylene tubes and 2.6 mL of tertiary butanol/distilled water (2:0.6) added to yield a final concentration of 50% (v/v) tertiary butanol in water. The sample was extracted by incubation for 45 minutes in a 37° C. water bath, and subjected to centrifugation at 3000×g for 13 minutes and the supernatant extract collected.
The concentration of bile acids […] in the extract was determined using a 96-well enzymatic assay system (4,5). 20 μl aliquots of each butanol extract was added to two sets of triplicate wells in a 96-well assay plate (one set on each half of the plate). Standardized sodium taurocholate solutions (0.2 and 0.9 mM) and standardized fecal extract solutions (previously made from pooled fecal samples collected from control and drug-treated rats) were analyzed in parallel to provide a bile acid standard curve and internal quality control samples, respectively. 20 μl aliquots of the sodium taurocholate standard were serially diluted to generate a standard curve and were added to two separate sets of triplicate wells.
To each well, 230 μl of reaction mixture containing 1M hydrazine hydrate, 0.1 M pyrophosphate and 0.46 mg/ml NAD was added. To start the reaction, a 50 μl aliquot of either 3a-hydroxysteroid dehydrogenase enzyme (HSD; 0.8 units/ml) or assay buffer (0.1 M sodium pyrophosphate) was added to one set of triplicate wells for each sample, respectively, with the set containing the assay buffer serving as the reaction blank. All reagents were obtained from Sigma Chemical Co., St. Louis, Mo. Following a 60 minute incubation at room temperature, the optical density at 340 nm was measured and the mean of each set of triplicate wells was calculated. The difference in optical density between the corresponding wells containing the HSD enzyme and the wells containing the assay buffer was used to determine the bile acid concentration (mM) of each sample by comparison to the sodium taurocholate standard curve. The bile acid concentration of the extract and the weight of the fecal homogenate (grams) were used to calculate FBA concentration in mmoles/day for each animal. The mean FBA concentration (mmoles/day) of the vehicle group was subtracted from the FBA concentration of individual rats in a treatment group to yield the increase in FBA concentration due to drug treatment for that animal. A mean value for the increase in FBA for each group was determined and compared to the vehicle group used, to determine compound dosing efficacy. Data was the average from the two days of fecal collection (Mean±SEM, n=4-20). […]

plasma triglycerides = experiment: Plasma triglycerides in ZDF rats, week 3; type: in vivo; conditions: twice daily oral gavage, no dose-related response
plasma amylase = experiment: Plasma amylase in ZDF rats, week 3; type: in vivo; conditions: twice daily oral gavage

## CCCCC1(CCCC)CS(=O)(=O)c2ccc(N(C)C)cc2[C@@H](c2ccc(OCc3ccc(C[N+]45CCN(CC4)CC5)cc3)cc2)[C@H]1O [LUM001]
Fecal bile acid (FBA); Q.D. 0.0006 mg/kg/day
  Fecal Bile Acids: 34 µmol/day
  Fecal Bile Acids, Increase over Vehicle (Delta): 12.1 µmol/day
Fecal bile acid (FBA); Q.D. 0.002 mg/kg/day
  Fecal Bile Acids: 26.6 µmol/day
  Fecal Bile Acids, Increase over Vehicle (Delta): 4.1 µmol/day
Fecal bile acid (FBA); Q.D. 0.003 mg/kg/day
  Fecal Bile Acids: 31.3 µmol/day
  Fecal Bile Acids, Increase over Vehicle (Delta): 10.7 µmol/day
Fecal bile acid (FBA); Q.D. 0.008 mg/kg/day
  Fecal Bile Acids: 25.8 µmol/day
  Fecal Bile Acids, Increase over Vehicle (Delta): 5.9 µmol/day
Fecal bile acid (FBA); Q.D. 0.016 mg/kg/day
  Fecal Bile Acids: 41.6 µmol/day
  Fecal Bile Acids, Increase over Vehicle (Delta): 24.7 µmol/day
Fecal bile acid (FBA); Q.D. 0.04 mg/kg/day
  Fecal Bile Acids: 44 µmol/day
  Fecal Bile Acids, Increase over Vehicle (Delta): 21.7 µmol/day
Fecal bile acid (FBA); Q.D. 0.08 mg/kg/day
  Fecal Bile Acids: 55.6 µmol/day
  Fecal Bile Acids, Increase over Vehicle (Delta): 35.2 µmol/day
Fecal bile acid (FBA); Q.D. 0.2 mg/kg/day
  Fecal Bile Acids: 62.7 µmol/day
  Fecal Bile Acids, Increase over Vehicle (Delta): 40.8 µmol/day
Fecal bile acid (FBA); Q.D. 0.4 mg/kg/day
  Fecal Bile Acids: 62.3 µmol/day
  Fecal Bile Acids, Increase over Vehicle (Delta): 47 µmol/day
Fecal bile acid (FBA); Q.D. 2 mg/kg/day
  Fecal Bile Acids: 71.6 µmol/day
  Fecal Bile Acids, Increase over Vehicle (Delta): 54.6 µmol/day
Fecal bile acid (FBA); all doses, Q.D. gavage for four days
  Fecal Bile Acids: significantly increased fecal bile acids for all doses

## CCCC[C@]1(CC)CS(=O)(=O)c2ccc(N(C)C)cc2[C@@H](c2cccc(NC(=O)N[C@@H]3O[C@H](COS(=O)(=O)[O-])[C@@H](O)[C@H](OCc4ccccc4)[C@H]3O)c2)[C@H]1O.CCO.O.[K+] [LUM002, potassium((2R,3R,4S,5R,6R)-4-benzyloxy-6-{3-[3-((3S,4R,5R)-3-butyl-7-dimethylamino-3-ethyl-4-hydroxy-1,1-dioxo-2,3,4,5-tetrahydro-1H-benzo[b]thiepin-5-yl)-phenyl]-ureido}-3,5-dihydroxy-tetrahydro-pyran-2-ylmethyl)sulphate ethanolate, hydrate]
Plasma triglycerides
  Fasting plasma triglycerides: statistically significant elevations
Plasma amylase
  Plasma amylase: Neither LUM002 nor SC-435 caused a statistically significant changes
